Reference: paper PMC5540273, “Progress towards a public chemogenomic set for protein kinases and a call for contributions” (PLoS ONE, 2017)

Assays:
Test in all cases: KINOMEscan competition binding
DLK = target: T1, DLK (Homo sapiens, UniProt Q12852); details: read-out: %Inh DLK
T1 sequence (Q12852 1-859): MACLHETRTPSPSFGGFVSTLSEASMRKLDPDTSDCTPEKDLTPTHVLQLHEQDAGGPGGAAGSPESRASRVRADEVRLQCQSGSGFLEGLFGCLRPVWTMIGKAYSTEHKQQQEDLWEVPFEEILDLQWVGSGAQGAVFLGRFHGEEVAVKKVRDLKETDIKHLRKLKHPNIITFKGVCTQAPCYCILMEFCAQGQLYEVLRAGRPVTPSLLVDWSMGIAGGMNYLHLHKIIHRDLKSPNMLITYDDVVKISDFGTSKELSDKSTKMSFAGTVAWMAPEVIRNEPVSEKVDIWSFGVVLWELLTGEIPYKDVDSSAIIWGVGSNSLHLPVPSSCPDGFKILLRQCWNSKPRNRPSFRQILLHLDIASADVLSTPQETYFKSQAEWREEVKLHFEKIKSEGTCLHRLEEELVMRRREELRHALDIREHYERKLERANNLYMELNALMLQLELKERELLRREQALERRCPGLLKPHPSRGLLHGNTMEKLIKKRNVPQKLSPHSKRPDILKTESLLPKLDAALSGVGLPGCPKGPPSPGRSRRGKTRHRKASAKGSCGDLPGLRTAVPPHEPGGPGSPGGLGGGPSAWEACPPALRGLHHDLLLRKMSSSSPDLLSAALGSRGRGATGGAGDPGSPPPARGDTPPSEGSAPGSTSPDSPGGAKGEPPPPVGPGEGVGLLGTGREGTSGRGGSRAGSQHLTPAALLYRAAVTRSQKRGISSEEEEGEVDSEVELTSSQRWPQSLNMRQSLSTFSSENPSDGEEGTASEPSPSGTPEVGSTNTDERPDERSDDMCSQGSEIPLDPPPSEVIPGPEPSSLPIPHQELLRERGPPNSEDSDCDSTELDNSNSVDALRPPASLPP

CSK = CSK (Homo sapiens, UniProt P41240); details: read-out: %Inh CSK
ERK5 = ERK5 (Homo sapiens, UniProt Q13164); details: read-out: %Inh ERK5
CTK = target: T2, CTK (Homo sapiens, UniProt P42679); details: read-out: %Inh CTK
T2 sequence (P42679 1-507): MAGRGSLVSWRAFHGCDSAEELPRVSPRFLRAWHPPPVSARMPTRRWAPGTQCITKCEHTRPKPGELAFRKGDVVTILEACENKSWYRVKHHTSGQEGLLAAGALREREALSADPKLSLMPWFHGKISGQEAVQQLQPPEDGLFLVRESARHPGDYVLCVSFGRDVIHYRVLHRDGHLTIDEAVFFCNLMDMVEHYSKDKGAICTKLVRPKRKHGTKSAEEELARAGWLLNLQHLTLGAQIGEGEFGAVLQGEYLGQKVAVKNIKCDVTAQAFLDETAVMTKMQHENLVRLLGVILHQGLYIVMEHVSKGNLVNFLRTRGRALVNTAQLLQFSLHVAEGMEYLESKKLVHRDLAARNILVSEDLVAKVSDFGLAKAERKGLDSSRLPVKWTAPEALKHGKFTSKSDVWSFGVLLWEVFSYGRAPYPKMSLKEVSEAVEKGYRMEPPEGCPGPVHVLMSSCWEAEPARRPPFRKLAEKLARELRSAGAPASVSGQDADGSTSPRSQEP

CAMK2A = CAMK2A (Homo sapiens, UniProt Q9UQM7); details: read-out: %Inh CAMK2A
CSNK1D = CSNK1D (Homo sapiens, UniProt P48730); details: read-out: %Inh CSNK1D
GRK7 = target: T3, GRK7 (Homo sapiens, UniProt Q8WTQ7); details: read-out: %Inh GRK7
T3 sequence (Q8WTQ7 1-553): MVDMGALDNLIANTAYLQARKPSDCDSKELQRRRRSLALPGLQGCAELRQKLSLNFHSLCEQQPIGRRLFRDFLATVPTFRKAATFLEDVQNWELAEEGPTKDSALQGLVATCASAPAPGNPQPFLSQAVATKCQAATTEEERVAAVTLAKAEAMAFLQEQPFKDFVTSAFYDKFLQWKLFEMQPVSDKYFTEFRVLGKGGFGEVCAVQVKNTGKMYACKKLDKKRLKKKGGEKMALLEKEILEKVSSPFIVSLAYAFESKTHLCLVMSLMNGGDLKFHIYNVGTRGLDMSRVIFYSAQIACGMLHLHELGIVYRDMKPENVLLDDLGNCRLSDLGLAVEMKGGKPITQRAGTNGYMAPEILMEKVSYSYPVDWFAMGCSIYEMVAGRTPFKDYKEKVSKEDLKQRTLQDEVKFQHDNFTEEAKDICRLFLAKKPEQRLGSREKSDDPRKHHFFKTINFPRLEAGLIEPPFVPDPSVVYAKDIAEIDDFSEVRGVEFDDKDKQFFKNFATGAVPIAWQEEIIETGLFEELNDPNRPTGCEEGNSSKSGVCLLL

GRK4 = GRK4 (Homo sapiens, UniProt P32298); details: read-out: %Inh GRK4
CDC2L1 = CDC2L1 (Homo sapiens, UniProt P21127); details: read-out: %Inh CDC2L1
ACVR1B = target: T4, ACVR1B (Homo sapiens, UniProt P36896); details: read-out: %Inh ACVR1B
T4 sequence (P36896 24-505): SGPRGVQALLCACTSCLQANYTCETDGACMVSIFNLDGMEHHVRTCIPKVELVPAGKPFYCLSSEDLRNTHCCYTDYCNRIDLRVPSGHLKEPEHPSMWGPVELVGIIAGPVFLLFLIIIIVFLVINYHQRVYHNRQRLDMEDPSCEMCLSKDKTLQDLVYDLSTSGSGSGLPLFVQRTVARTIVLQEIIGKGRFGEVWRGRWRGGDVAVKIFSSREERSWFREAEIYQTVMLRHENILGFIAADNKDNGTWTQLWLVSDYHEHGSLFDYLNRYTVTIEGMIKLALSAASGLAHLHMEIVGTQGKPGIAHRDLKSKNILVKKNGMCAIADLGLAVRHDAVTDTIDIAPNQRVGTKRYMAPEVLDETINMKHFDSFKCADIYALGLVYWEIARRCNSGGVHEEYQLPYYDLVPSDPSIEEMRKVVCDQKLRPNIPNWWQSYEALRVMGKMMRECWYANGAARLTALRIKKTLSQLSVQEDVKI

Chain of CSK (P41240 whole entry): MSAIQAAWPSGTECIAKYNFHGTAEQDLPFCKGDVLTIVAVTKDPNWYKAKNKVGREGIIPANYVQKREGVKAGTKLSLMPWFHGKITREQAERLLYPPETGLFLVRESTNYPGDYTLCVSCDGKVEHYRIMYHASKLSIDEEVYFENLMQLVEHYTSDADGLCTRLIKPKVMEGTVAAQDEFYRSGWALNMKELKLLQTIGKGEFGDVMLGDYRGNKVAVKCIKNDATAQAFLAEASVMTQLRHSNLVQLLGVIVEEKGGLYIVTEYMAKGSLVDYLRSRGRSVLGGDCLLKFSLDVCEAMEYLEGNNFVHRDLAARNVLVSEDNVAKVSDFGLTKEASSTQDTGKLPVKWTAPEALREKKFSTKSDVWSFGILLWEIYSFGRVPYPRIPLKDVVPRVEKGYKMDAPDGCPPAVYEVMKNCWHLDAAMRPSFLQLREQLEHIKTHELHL
Chain of CSNK1D (P48730 whole entry): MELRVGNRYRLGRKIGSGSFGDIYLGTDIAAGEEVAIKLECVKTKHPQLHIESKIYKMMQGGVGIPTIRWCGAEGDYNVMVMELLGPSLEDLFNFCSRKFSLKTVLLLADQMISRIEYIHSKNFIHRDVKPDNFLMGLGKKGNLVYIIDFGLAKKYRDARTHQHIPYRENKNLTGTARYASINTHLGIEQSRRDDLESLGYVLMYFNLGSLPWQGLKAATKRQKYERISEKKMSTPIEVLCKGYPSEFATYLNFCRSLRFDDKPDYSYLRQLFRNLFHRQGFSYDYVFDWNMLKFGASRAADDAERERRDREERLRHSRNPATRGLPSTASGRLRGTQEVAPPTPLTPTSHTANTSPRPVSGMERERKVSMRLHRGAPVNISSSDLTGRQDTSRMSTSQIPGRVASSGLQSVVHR
Chain of CAMK2A (Q9UQM7 whole entry): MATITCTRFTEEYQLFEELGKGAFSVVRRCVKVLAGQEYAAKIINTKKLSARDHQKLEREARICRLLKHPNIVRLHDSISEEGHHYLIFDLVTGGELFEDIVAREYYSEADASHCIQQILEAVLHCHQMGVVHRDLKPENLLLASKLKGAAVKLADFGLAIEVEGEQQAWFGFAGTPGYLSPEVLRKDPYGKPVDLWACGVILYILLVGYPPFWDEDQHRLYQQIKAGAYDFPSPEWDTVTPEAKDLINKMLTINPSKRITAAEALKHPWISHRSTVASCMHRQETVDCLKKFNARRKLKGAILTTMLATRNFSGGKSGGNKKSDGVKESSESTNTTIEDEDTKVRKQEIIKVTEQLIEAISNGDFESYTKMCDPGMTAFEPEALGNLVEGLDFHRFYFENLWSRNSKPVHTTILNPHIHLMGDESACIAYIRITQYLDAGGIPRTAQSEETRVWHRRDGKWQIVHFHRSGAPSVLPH
Chain of CDC2L1 (P21127 whole entry): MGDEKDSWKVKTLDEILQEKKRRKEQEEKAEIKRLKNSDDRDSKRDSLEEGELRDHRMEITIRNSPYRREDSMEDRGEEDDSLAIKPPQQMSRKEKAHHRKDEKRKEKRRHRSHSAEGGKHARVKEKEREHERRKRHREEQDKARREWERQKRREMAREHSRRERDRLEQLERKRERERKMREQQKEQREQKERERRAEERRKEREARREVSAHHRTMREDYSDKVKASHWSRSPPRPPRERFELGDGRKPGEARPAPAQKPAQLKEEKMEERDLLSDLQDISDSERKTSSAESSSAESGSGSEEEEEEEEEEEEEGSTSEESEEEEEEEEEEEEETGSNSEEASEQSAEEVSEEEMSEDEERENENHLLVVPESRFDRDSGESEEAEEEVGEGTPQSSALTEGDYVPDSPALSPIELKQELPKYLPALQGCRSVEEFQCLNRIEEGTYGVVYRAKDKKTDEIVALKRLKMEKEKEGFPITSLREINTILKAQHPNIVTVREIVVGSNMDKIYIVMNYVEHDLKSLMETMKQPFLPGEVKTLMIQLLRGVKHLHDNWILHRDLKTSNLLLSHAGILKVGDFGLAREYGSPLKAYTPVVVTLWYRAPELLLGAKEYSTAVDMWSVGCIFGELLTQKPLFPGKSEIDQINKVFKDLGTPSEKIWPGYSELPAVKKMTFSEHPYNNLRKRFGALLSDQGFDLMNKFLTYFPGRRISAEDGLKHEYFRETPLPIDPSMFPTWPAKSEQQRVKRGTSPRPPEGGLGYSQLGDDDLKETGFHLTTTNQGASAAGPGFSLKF
Chain of GRK4 (P32298 whole entry): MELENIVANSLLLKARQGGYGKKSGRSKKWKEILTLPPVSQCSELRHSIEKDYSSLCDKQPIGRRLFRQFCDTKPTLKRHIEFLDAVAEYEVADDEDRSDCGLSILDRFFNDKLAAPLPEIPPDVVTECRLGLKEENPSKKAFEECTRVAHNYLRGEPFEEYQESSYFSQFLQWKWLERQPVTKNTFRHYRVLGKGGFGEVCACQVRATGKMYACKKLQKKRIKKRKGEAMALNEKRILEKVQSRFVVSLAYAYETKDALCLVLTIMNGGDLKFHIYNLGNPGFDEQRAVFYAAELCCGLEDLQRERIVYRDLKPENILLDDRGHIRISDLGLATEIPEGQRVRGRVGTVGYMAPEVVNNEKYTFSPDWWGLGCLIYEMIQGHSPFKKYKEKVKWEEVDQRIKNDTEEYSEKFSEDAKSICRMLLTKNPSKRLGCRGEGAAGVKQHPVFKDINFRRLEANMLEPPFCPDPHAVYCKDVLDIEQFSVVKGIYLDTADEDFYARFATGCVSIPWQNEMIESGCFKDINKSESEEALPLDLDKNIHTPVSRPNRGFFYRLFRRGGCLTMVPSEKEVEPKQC
Chain of ERK5 (Q13164 whole entry): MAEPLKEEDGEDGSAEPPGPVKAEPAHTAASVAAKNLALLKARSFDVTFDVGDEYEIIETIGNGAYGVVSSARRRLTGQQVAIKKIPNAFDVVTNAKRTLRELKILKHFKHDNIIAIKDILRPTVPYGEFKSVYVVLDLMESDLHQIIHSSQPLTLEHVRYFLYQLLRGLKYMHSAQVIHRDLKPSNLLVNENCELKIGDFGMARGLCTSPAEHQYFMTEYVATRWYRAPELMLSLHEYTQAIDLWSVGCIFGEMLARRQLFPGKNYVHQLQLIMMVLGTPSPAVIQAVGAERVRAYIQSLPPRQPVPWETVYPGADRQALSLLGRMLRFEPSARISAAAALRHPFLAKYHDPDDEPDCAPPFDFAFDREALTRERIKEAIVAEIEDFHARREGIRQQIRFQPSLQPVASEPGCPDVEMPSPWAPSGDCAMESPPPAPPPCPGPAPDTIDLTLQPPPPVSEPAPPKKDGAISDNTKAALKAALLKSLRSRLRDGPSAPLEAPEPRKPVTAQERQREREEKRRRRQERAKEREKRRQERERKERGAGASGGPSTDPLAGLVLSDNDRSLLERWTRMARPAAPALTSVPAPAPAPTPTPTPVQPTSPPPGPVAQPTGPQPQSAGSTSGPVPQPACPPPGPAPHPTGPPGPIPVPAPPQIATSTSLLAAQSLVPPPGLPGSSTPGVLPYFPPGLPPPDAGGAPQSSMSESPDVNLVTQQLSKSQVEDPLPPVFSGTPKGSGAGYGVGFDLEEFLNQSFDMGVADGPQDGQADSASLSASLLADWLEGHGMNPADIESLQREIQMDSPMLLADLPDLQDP

SMILES	inhibition at 1 µM (DLK) [%]	inhibition at 1 µM (CSK) [%]	inhibition at 1 µM (ERK5) [%]	inhibition at 1 µM (CTK) [%]	inhibition at 1 µM (CAMK2A) [%]	inhibition at 1 µM (CSNK1D) [%]	inhibition at 1 µM (GRK7) [%]	inhibition at 1 µM (GRK4) [%]	inhibition at 1 µM (CDC2L1) [%]	inhibition at 1 µM (ACVR1B) [%]
CS(=O)(=O)Cc1ccc(Nc2nccc(-c3c(-c4cccc(NC(=O)C5CCCCC5)c4)nn4ncccc34)n2)cc1 [UNC10225159A]	41	10	0	38	15	0	5	0	0	0
Cn1cc(-c2cnc(N)c3c(-c4ccc5c(c4)CCN5C(=O)Cc4ccccc4)csc23)cn1 [UNC10225012A]	0	20	15	62	29	0	6	7	4	9
O=c1cc(N2CCOCC2)nc2n(Cc3cccc(Cl)c3Cl)c(C3CC3)nn12 [UNC10225469A]	0	8	0	0	25	7	0	0	0	0
COc1cccc(OC)c1C(=O)Nc1cccc(-c2nn3ccccc3c2-c2ccnc(Nc3cccc(F)c3)n2)c1 [UNC10225310A]	0	18	2	21	27	9	17	0	0	15
Cc1ccc(NC(=O)Nc2cccc(C(F)(F)F)c2)cc1 [UNC10225187A]	0	28	5	0	32	0	10	0	3	85
